pIC50: −log10 of the molar value.

The first test deals with T1, human DGAT1 expressed in insect cell membranes (Homo sapiens, UniProt O75907).
T1 construct: made in house; host or cells: sf9 insect cells (baculovirus), membrane fraction
T1 sequence (O75907 1-488): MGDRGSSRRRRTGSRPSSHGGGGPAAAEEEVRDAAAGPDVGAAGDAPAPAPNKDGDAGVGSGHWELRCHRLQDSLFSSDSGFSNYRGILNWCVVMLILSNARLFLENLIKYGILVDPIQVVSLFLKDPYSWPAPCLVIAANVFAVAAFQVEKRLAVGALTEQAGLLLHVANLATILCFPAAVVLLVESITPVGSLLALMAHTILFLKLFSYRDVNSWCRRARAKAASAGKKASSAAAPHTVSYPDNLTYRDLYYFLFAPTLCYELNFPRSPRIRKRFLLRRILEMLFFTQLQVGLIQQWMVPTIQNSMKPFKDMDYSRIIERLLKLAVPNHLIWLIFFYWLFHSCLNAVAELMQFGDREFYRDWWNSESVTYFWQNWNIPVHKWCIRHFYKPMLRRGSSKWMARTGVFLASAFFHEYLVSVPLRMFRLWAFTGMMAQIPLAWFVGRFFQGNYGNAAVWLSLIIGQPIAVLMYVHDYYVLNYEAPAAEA
Kind of test: Human Enzyme Assay: in vitro DGAT1 inhibition, 14C oleoyl coenzyme A incorporation into triolein. Type of test: biochemical. To be noted: acetone concentration not stated for these values; usually a mean of 2 measurements; read-out: IC50. Here is the method: Briefly, sf9 cells were infected with recombinant baculovirus containing human DGAT1 coding sequences and harvested after 48 h. […] The membrane fraction at the interphase was collected, washed, and stored in liquid nitrogen.
The reaction was started by adding ^14C oleoyl coenzyme A (30 μM final concentration) and incubated at room temperature for 30 minutes. The reaction was stopped by adding 200 μl 2-propanol:heptane 7:1. Radioactive triolein product was separated into the organic phase by adding 300 μl heptane and 100 μl 0.1 M carbonate buffer pH 9.5. DGAT1 activity was quantified by counting aliquots of the upper heptane layer by liquid scintillography.
Stated figures are usually a mean of a number of measurements (usually 2 measurements) according to standard practice.
The term pIC50 denotes −log10 of the IC50, conventionally taken in molar units. Take `NC(=O)c1nc(-c2ccc([C@H]3CC[C@H](CC(=O)O)CC3)cc2)cnc1N` [Example 18, 3-Carbamoyl-5-{4-[trans-4-(carboxymethyl)cyclohexyl]phenyl}pyrazin-2-aminium chloride]: the pIC50 is 5.55.

With `Cc1nc(C)c(-c2ccc(N3CCC(C(C)C(=O)O)CC3)cc2)nc1C(N)=O` (centres unmarked) [Example 39], the pIC50 was 5.52. Regarding `Cc1cc(-c2nc(C(N)=O)c(C)nc2C)cc(C)c1-c1ccc(CC(=O)O)cc1` [Example 63], the pIC50 was 6.74. On the same count and under the same terms, in the case of `Cc1nc(C)c(-c2ccc(N3CCC(CC(=O)O)C3)cc2)nc1C(N)=O` (centres unmarked) [Example 40, 2-(1-(4-(6-Carbamoyl-3,5-dimethylpyrazin-2-yl)phenyl)pyrrolidin-3-yl)acetic acid] it was 5.92; in that of `Cc1nc(C)c(-c2ccc(N3CCC[C@H](C(=O)O)C3)cc2)nc1C(N)=O` [Example 34], 5.52.

Staying with this test, now noted: compound at 10 μM.
As usually defined, the inhibition is the drop in the measured response relative to a control, in per cent. In turn, `Cc1nc(C)c(-c2ccc(N3CCN(CC(=O)O)CC3)cc2)nc1C(N)=O` [Example 36] yielded an inhibition at 10 µM of 46 to 67%. Still for that read-out and setting: in the case of `Cc1nc(C)c(-c2ccc(-c3ccc(CC(=O)O)cc3)cc2C(F)(F)F)nc1C(N)=O` [Example 56] it was 15 to 31%; in that of `Cc1nc(C)c(-c2ccc(N3CCC[C@H](CC(=O)O)C3)cc2)nc1C(N)=O` [Example 37], 47 to 50%.

For the origin of these results see patent publication US7994179B2, “Carbamoyl compounds as DGAT1 inhibitors 190” (AstraZeneca AB, priority 2007, dated 2011).
